According to ChEMBL document CHEMBL1156829 (Proc Natl Acad Sci U S A, 2008):

Columns and labels:
Plasmodium falciparum [1] = experiment: NOVARTIS: Inhibition of Plasmodium falciparum 3D7 (drug-susceptible) proliferation in erythrocyte-based infection assay; assay type: functional, organism-based; settings: Plasmodium falciparum, 3D7
Plasmodium falciparum [2] = experiment: NOVARTIS: Inhibition of Plasmodium falciparum W2 (drug-resistant) proliferation in erythrocyte-based infection assay; assay type: functional, organism-based; settings: Plasmodium falciparum, W2; read-out: EC50
[3] = NOVARTIS: Cytotoxicity against human hepatocellular carcinoma cell line (Huh7); assay type: toxicity, cell-based, Huh-7; settings: Huh7 cells (hepatocellular carcinoma cell line)

SMILES	EC50 (Plasmodium falciparum [1]) [µM]	EC50 (Plasmodium falciparum [2]) [µM]	CC50 [3] [µM]
COC(=O)c1ccc(N2C(=O)C3C(C2=O)C2(c4ccccc4)C(=O)C3(c3ccccc3)C(c3ccc(OC)cc3)=C2c2ccc(OC)cc2)cc1 (stereo not given)	4.83	> 12.5	> 100
CCCCCCCCCC[n+]1c(C)n(CC)c2cc(Cl)c(Cl)cc21	0.613	0.49	21
CCN(CC)C(CN1CCN(CC(C)C(=O)c2ccc(O)cc2)CC1)c1ccc(F)cc1 (stereo not given)	1.95	4.31	49
COc1cccc(NC(=O)c2cccc3c(=O)c4c([nH]c23)CCCC4)c1	0.957	0.169	> 100
CC1=C(C(=O)OC(C)C)C(c2ccccc2F)C2=C(CC(C)(C)CC2=O)N1 (stereo not given)	> 1.25	1.91	> 10
CC1CCN(C(=O)C(C)N(c2ccccc2)S(C)(=O)=O)CC1 (stereo not given)	7.2	8.32	> 100
COc1ccc(C2=C/C(=C/c3cccc(OC)c3OC)C(=O)O2)cc1OC	1.15	> 0.751	> 10
COc1ccc(CCN2CCC(NCc3cccc(N(C)C)c3)CC2)cc1	0.806	1.06	> 10
O=C(Cc1ccccc1)NC(c1ccccc1)c1ccc2cccnc2c1O (stereo not given)	0.423	0.382	> 100
CO[C@H]1C[C@H](C)Cc2cc(O)cc(c2)NC(=O)C(C)=CCC[C@H](OC)[C@@H](OC(N)=O)C(C)=CC(C)[C@H]1O (stereo not given in full)	> 1.25	0.0267	> 10
NC(=O)CSc1nnc2ccc(-c3ccc4c(c3)OCO4)nn12	> 1.25	> 1.11	> 10
Cc1ccc(/C=C/c2ccc3ccccc3[n+]2C)cc1	0.131	0.217	> 10
Cc1ccccc1-c1cccc(CN2CCCCC2CCn2cc(C(=O)NC3CC3)nn2)c1 (stereo not given)	1.47	0.685	> 100
CC(C)(C)c1ncccc1OC(=O)C12CC3CC(CC(C3)C1)C2	0.349	> 1.47	> 10
COC(=O)C1=CNC=C(C(=O)OC)C1c1cc(OC)c(OC)c(OC)c1	8.99	4.5	> 100
CCC(C)NC(=O)CN(c1cc(OC)ccc1OC)S(C)(=O)=O (stereo not given)	0.438	0.349	> 10
OC(COc1ccc(OCC(O)CN2CCN(C3c4ccccc4-c4ccccc43)CC2)cc1)CN1CCN(C2c3ccccc3-c3ccccc32)CC1 (stereo not given)	> 6.19	> 12.5	> 100
CN(CCCNc1ccnc2cc(Cl)ccc12)C(=O)C(C)(C)CCl	0.0949	0.193	> 10

SMILES	EC50 (Plasmodium falciparum [1]) [µM]	EC50 (Plasmodium falciparum [2]) [µM]	CC50 [3] [µM]
Cc1ccc(Nc2nc(NCc3ccco3)c3ccccc3n2)cc1	0.126	0.216	5.27
CCN(CC)Cc1cc2ccc(C)cc2n(CC(=O)OC)c1=O	> 1.25	0.0267	> 10
CCOC(=O)c1cnc2c(ccc3ccccc32)c1Nc1ccc(NC(C)=O)cc1	6.9	1.61	> 100
O=C(NCCc1ccccc1)c1cnc(NCCCn2ccnc2)nc1NCC1CCCCC1	0.0914	0.208	> 10
OC(CN1CCN(C2c3ccccc3-c3ccccc32)CC1)Cn1c2ccc(Cl)cc2c2cc(Cl)ccc21 (stereo not given)	1.2	0.278	> 10
C=CCCC(=O)N1CCC(C(=O)Nc2ccc(-c3nc4ccccc4o3)cc2)CC1	5.42	1.53	> 100
CCCS(=O)(=O)c1c(S(=O)(=O)CCC)c2ccc(C(C)=O)cn2c1C(=O)c1ccc(C)cc1	> 12.5	1.83	> 100
COc1ccc(-c2noc(CNC(=O)c3cccc(I)c3)n2)cc1	> 12.5	1.58	> 100
NC(=S)NN=Cc1cc([N+](=O)[O-])ccc1O	0.0686	0.052	> 100
CCOC(=O)C1=C(C)N=c2sc(=Cc3cc(Br)ccc3O)c(=O)n2C1c1ccccc1 (stereo not given)	5.53	1.41	> 100
Brc1ccc(C=NNc2nc3ccccc3[nH]2)cc1	0.226	0.674	55.8
Cc1c(C#N)c2ccccc2n1CC(=O)NCCc1ccccc1	0.398	0.411	> 100
COc1ccc(Nc2cc(C)nc(NCc3ccccc3)n2)cc1	0.151	0.427	16.7
COc1ccc(CCN2CC(CNC(=O)Cc3cccnc3)C(c3ccc(N(C)C)cc3)C2)cc1OC (stereo not given)	0.997	> 0.306	> 10
Cc1ccc(-c2c3c(nc4sc(C(=O)Nc5ccc(F)cc5)c(N)c24)CCC3)cc1	0.0688	0.0272	> 100
O=C(NCc1ccc(Cl)cc1)C(=O)NCc1ccccn1	1.32	0.105	8.24
Cc1cc(NC(c2cccc(Br)c2)c2ccc3cccnc3c2O)no1 (stereo not given)	0.267	0.4	> 22.8
